Test results taken from patent publication US20170312296A1, “AGENTS FOR KILLING HIV-1-INFECTED CELLS AND APPLICATION THEREOF” (KAGOSHIMA UNIVERSITY, priority 2015, published 2017).

Tests used:
[1] = tested on: HIV-1 strain IIIB; assay: Amount of HIV-1 produced (HIV-1 p24 Antigen ELISA) in HIV-1-infected human peripheral blood mononuclear cells; assay type: cell-based
[2] = tested on: HIV-1-infected human peripheral blood mononuclear cells; assay: Cell viability (dye method) in HIV-1 chronically infected cell model derived from human peripheral blood mononuclear cells; conditions: for effect on the cell death-inducing effect specific for HIV-1-infected cells due to entinostat: Example 2: combination with entinostat 0.5 μM after protease inhibitor pretreatment; for cell death-inducing effect specific for HIV-1-infected cells: Example 4: treatment after 11 days culture
Method: Healthy donor-derived peripheral blood mononuclear cells were infected with HIV-1 strain IIIB in vitro to prepare an HIV-1 chronically infected cell model derived from human peripheral blood mononuclear cells, and a combination effect of an HIV-1 protease inhibitor (NFV or SQV) and an HDAC inhibitor (entinostat or vorinostat) was examined.
After HIV-1 infection or pseudo-infection (=mock-infection), the cells were cultured for 7 days and treated with various concentrations of each HIV-1 protease inhibitor for 3 days. For 3 days thereafter, treatment was carried out using combinations of each HIV-1 protease inhibitor having the same concentration and each HDAC inhibitor. The cell viability in each sample was measured by a dye method, and the amount of HIV-1 produced, by an ELISA method (HIV-1 p24 Antigen ELISA). […]

[3] = tested on: HIV-1 strain IIIB; assay: Amount of HIV-1 produced (HIV-1 p24 Antigen ELISA) in HIV-1-infected CD4T; assay type: cell-based
Source text: (§1) In this Example, it was examined whether combined use with an HIV-1 reverse transcriptase inhibitor provided the same effect, by conducting a combination experiment with entinostat according to the experimental procedure shown in FIG. 13 using tenofovir (TFV) as one of the clinically most used HIV-1 reverse transcriptase inhibitors.
as §1, with “Then,” for “In this Example,”, “integrase” for “reverse transcriptase”, “effect” for “effect,”, “15” for “13”, “dolutegravir (DTG)” for “tenofovir (TFV)”

[4] = tested on: HIV-1-infected CD4-positive T lymphocytes (CD4T); assay: Cell viability (dye method) in CD4T-derived HIV-1 chronically infected cell model; assay type: cell-based, human; conditions: for effect on the cell death-inducing effect specific for HIV-1-infected cells due to entinostat: Example 6, CD4T, combination with entinostat; for cell death-inducing effect specific for HIV-1-infected cells in CD4T: Example 5: treated 4 days from day 3 or from day 7 after infection
Method: In this Example, the action of various HDAC inhibitors on HIV-1-infected CD4T was analyzed using CD4T purified from human peripheral blood mononuclear cells.
as §1
as §1, with “Then,” for “In this Example,”, “integrase” for “reverse transcriptase”, “effect” for “effect,”, “15” for “13”, “dolutegravir (DTG)” for “tenofovir (TFV)”

[5] = tested on: Cleaved PARP; assay: Western blot of cleaved PARP in CD4T; assay type: cell-based, human
Method: (§2) The extracted protein was analyzed by a Western blot method.
(§3) The expression of each of Cleaved caspase-3 and Cleaved PARP was corrected with the expression of β-tublin as an internal control to make a graph.

[6] = tested on: Cleaved caspase-3; assay: Western blot of cleaved caspase-3 in CD4T; assay type: cell-based, human; conditions: entinostat 0.5 μM
Method: as §2, §3

[7] = tested on: HIV-1 latently infected cells (reservoir cells); conditions: literature report (Johnstone 2002); cited from earlier work
[8] = tested on: mock-infected CD4-positive T lymphocytes (CD4T); assay: Cell viability (dye method) of mock-infected CD4T; assay type: cell-based, human; conditions: Example 5, CD4T
[9] = tested on: mock-infected human peripheral blood mononuclear cells; assay: Cell viability (dye method) of mock-infected human peripheral blood mononuclear cells; assay type: cell-based; conditions: Example 4
Method: After HIV-1 infection or pseudo-infection (=mock-infection), the cells were cultured for 7 days and treated with various concentrations of each HIV-1 protease inhibitor for 3 days. For 3 days thereafter, treatment was carried out using combinations of each HIV-1 protease inhibitor having the same concentration and each HDAC inhibitor. The cell viability in each sample was measured by a dye method, and the amount of HIV-1 produced, by an ELISA method (HIV-1 p24 Antigen ELISA).
After HIV-1 infection or pseudo-infection (=mock-infection), culture was performed for 11 days, and for 3 days from day 12, the combined administration of each HIV-1 protease inhibitor having various concentrations and the HDAC inhibitor was carried out. The cell viability in each sample was measured by a dye method, and the amount of HIV-1 produced, by an ELISA method (HIV-1 p24 Antigen ELISA).
After HIV-1 infection or pseudo-infection (=mock-infection), the cells were cultured for 11 days and treated with various concentrations of each HDAC inhibitor. The cell viability in each sample was measured by a dye method, and the amount of HIV-1 produced, by an ELISA method (HIV-1 p24 Antigen ELISA).

[10] = Example 2: protease inhibitor pretreatment 3 days, then combination 3 days, in the presence of entinostat of 0.5 μM
[11] = Example 3: simultaneous administration with entinostat, no pretreatment, 3 days from day 12

CC(C)(C)NC(=O)[C@@H]1C[C@@H]2CCCC[C@@H]2CN1C[C@@H](O)[C@H](Cc1ccccc1)NC(=O)[C@H](CC(N)=O)NC(=O)c1ccc2ccccc2n1 [SQV, saquinavir]
HIV-1 production [1, 10]: concentration-dependently suppressed HIV-1 production
effect on the cell death-inducing effect specific for HIV-1-infected cells due to entinostat [2]: did not affect

CC(C)CN(C[C@@H](O)[C@H](Cc1ccccc1)NC(=O)O[C@H]1CO[C@H]2OCC[C@H]21)S(=O)(=O)c1ccc(N)cc1 [darunavir]
concentration that strongly suppressed the increase in HIV-1 production due to entinostat ([1]; Example 3: simultaneous administration with entinostat): ≥ 100 nM
HIV-1 production [1, 11]: suppressing HIV-1 production
activation of HIV-1 production by entinostat ([3]; Example 6: 100 nM, administered simultaneously with entinostat, CD4T): strongly suppressing

C[C@@H]1CCO[C@H]2Cn3cc(C(=O)NCc4ccc(F)cc4F)c(=O)c(O)c3C(=O)N12 [dolutegravir]
effect on the cell death-inducing effect specific for HIV-1-infected cells due to entinostat [4]: did not affect
anti-HIV-1 effect ([3]; Example 6, CD4T, in the absence of entinostat): hardly had an anti-HIV-1 effect

Nc1ccccc1NC(=O)c1ccc(CNC(=O)OCc2cccnc2)cc1 [entinostat]
effect of the HDAC inhibitor on HIV-1 production in infected cells ([1]; entinostat alone): activates HIV-1 production
cell death-inducing effect specific for HIV-1-infected cells in CD4T [4]: cell death-inducing effect specific for HIV-1-infected cells
cleaved PARP expression ([5]; entinostat 0.5 μM, 24 hours, pseudo-infected CD4T and HIV-1-infected CD4T): increase in the cleaved PARP was observed
expression of PARP (cleaved) ([5]; entinostat, 48 hours, HIV-1-infected CD4T): markedly increased
increase of cleaved caspase-3 in HIV-1-infected CD4T versus pseudo-infected CD4T ([6]; 24 hours): more marked
activated form of caspase-3 (cleaved caspase-3) expression ([6]; 24 hours, pseudo-infected CD4T (Mock) and HIV-1-infected CD4T (HIV)): increase
increase in activated form of caspase-3 ([6]; 48 hours, pseudo-infected CD4T and HIV-1-infected CD4T): not observed
activation of HIV-1 latently infected cells to induce HIV-1 production [7]: activate HIV-1 latently infected cells
cell death-inducing effect specific for HIV-1-infected cells [2]: cell death-inducing effect specific for HIV-1-infected cells
viability at 0.5 µM ([2]; Homo sapiens, PBMC, read-out: cell viability of HIV-1-infected cells relative to cell viability of pseudo-infected (non-infected) cells): ~50%

Cc1c(O)cccc1C(=O)N[C@@H](CSc1ccccc1)[C@H](O)CN1C[C@H]2CCCC[C@H]2C[C@H]1C(=O)NC(C)(C)C [nelfinavir]
HIV-1 production [1, 10]: concentration-dependently suppressed HIV-1 production
HIV-1 production [1, 11]: suppressing HIV-1 production
effect on the cell death-inducing effect specific for HIV-1-infected cells due to entinostat [2]: did not affect

C[C@H](Cn1cnc2c(N)ncnc21)OCP(=O)(O)O [tenofovir]
effect on the cell death-inducing effect specific for HIV-1-infected cells due to entinostat [4]: did not affect
concentration at which HIV-1 production was still not suppressed ([3]; Example 6, CD4T, irrespective of the presence or absence of entinostat): > 1 µM

O=C(CCCCCCC(=O)Nc1ccccc1)NO [vorinostat]
cell death-inducing effect specific for HIV-1-infected cells in CD4T [4]: no cell death-inducing effect specific for HIV-1-infected cells
activation of HIV-1 latently infected cells to induce HIV-1 production [7]: activate HIV-1 latently infected cells

chidamide
cell death-inducing effect against infected cells compared to entinostat ([4]; Example 5, CD4T): weaker cell death-inducing effect
cell death-inducing effect specific for HIV-1-infected cells in CD4T [4]: cell death-inducing effect specific for HIV-1-infected cells
toxicity to mock-infected cells compared to entinostat [8]: less toxic
toxicity to mock-infected cells compared with entinostat [9]: less toxic
cell death-inducing effect specific for HIV-1-infected cells compared with entinostat ([2]; Example 4): weaker cell death-inducing effect
cell death-inducing effect specific for HIV-1-infected cells [2]: cell death-inducing effect specific for HIV-1-infected cells
